Laboratory results as given in article PMC5030486, “Neprilysin is a Mediator of Alternative Renin-Angiotensin-System Activation in the Murine and Human Kidney” (Scientific Reports, 2016).
Each block holds one compound with its values, some of them ahead of it. Ends that are not written are not given here. Peptide text beside a SMILES is read from it. * marks the point of attachment. Cbz = O=C(OCc1ccccc1)*

How the values were obtained:
[1] = system: CES1; conditions: liver; cited from earlier work
[2] = biological target: T1, NEP (Mus musculus, UniProt Q61391); experiment: MALDI-Imaging of Ang I to Ang-(1-7) turnover in murine kidney cryo-sections; type: biochemical
T1 construct: Consecutive tissue sections were prepared from fresh frozen kidneys (n = 4); from tissue; host or cells: murine kidney cryo-sections (fresh frozen)
T1 sequence (Q61391 1-750): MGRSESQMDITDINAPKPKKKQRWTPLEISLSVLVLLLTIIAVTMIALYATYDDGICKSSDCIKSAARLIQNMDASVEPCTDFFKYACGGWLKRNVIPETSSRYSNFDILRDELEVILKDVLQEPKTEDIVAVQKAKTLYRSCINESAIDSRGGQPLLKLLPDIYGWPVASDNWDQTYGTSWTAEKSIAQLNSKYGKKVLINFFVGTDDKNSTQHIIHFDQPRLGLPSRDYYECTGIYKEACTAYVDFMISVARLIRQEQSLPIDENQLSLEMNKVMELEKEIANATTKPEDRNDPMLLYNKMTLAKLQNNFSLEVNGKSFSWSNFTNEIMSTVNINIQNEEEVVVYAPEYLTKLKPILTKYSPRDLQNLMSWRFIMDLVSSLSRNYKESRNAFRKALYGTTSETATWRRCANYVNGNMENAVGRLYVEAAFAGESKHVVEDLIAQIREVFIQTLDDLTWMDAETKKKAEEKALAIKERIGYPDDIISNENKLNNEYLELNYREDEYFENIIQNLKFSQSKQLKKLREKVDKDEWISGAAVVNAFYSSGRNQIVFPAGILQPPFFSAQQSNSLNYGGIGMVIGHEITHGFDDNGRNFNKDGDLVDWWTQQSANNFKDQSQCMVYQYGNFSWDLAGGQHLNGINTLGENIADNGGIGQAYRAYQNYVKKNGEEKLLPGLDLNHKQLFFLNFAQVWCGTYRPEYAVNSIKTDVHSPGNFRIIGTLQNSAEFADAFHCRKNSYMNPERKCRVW
Description: Consecutive tissue sections were prepared from fresh frozen kidneys (n = 4) as previously described[37] and incubated with 772 μM Ang I at 37 °C for 5 min. […] The imaging technique is described in detail elsewhere.

[3] = system: Ang-(1-7) and Ang II formation from Ang I (NEP, PEP, ACE, chymase) in human kidney homogenates
Description: (§1) This study was approved by the Ethics Committee of the Medical University of Vienna (EK #1496/2014) and was performed in accordance to the good clinical practice guidelines. Written informed consent was obtained before biopsies were taken perioperative from 5 kidney donors in 2014. Renal biopsies were either snap frozen in liquid nitrogen for angiotensin metabolism analysis or fixed in formalin for histological examination.
Metabolic RAS analysis was performed by Attoquant Diagnostics GmbH, Vienna, Austria. Renal biopsies of mice and humans were extracted and homogenized in phosphate-buffered saline (PBS) using low-energy sonication. The metabolism of spiked Ang I, Ang II (Fisher Scientific) or recombinant murine AGT (Sino Biological Inc.) for the renin activity assay, respectively, was assayed in homogenates after ex vivo incubation at 37 °C in presence or absence of specific enzyme inhibitors. […] Aminopeptidase Inhibitor (10 μM, Sigma-Aldrich) was added to all samples.
The enzyme activity was calculated by determining the inhibitor sensitive part of product formation in incubated samples and is presented as a product formation in ng of the corresponding angiotensin product per μg protein per hour. In order to proof linearity of the assay in dependence of enzyme abundance, Ang I and Ang II metabolism were assayed in serial diluted kidney homogenates (Supplementary Fig. 6). All experiments were performed in the linear range of the assay.
(§2) Angiotensin peptide quantification by liquid chromatography tandem-mass spectrometry analysis (LC-MS/MS) was performed by Attoquant Diagnostics GmbH (Vienna, Austria) as previously described.

[4] = system: Ang-(1-7) and Ang II formation from Ang I (NEP, PEP, ACE) in murine kidney homogenates; type: biochemical, mouse
Description: as §2

[5] = system: ACE; conditions: cited from earlier work
[6] = system: murine kidney angiotensin levels; experiment: Renal angiotensin metabolites in mice treated i.p. with NEP inhibitor; type: in vivo, mouse; conditions: 50 mg/kg i.p.
Description: (§3) 10 to 12 weeks old female wild-type with C57BL/6j background were maintained at the animal care facility of the University Duesseldorf, Germany under a 12 h light/dark cycle, normal chew (SNIFF, Soest) and tap water ad libitum. Vehicle (50% DMSO) or NEP-inhibitor (LBQ657 (Sigma-Aldrich): 50 mg/kg) were administrated i.p. 4 hours prior to kidney and heparin plasma sampling. Kidneys were obtained as given above, while heparin plasma was incubated for 30 min at 37 °C for equilibrium analysis, stabilized[38] and stored at −80 °C until shipment.
as §2

[7] = system: murine plasma equilibrium angiotensin levels; experiment: Equilibrium plasma angiotensin metabolites in mice treated i.p. with NEP inhibitor; type: in vivo, mouse; conditions: 50 mg/kg i.p., 4 hours, mean ± s.e.m., n = 5
Description: as §3, §2

[8] = system: Ang-(1-7) formation from Ang II (ACE2, PCP) in murine kidney homogenates; experiment: Ang II turnover to Ang-(1-7) in murine kidney homogenates with and without enzyme inhibitors; type: biochemical, mouse; conditions: Ang II spike, 37 °C, LC-MS/MS, n = 4
Description: as §2

[9] = system: Ang-(1-7) formation from Ang II (ACE2, PCP) in human kidney homogenates; experiment: Ang II turnover to Ang-(1-7) in human kidney biopsy homogenates; type: biochemical; conditions: human kidney biopsy homogenate, inhibitor sensitive formation rate of Fig. 2d, mean ± s.d., n = 5
Description: as §1
Metabolic RAS analysis was performed by Attoquant Diagnostics GmbH, Vienna, Austria. Renal biopsies of mice and humans were extracted and homogenized in phosphate-buffered saline (PBS) using low-energy sonication. The metabolism of spiked Ang I, Ang II (Fisher Scientific) or recombinant murine AGT (Sino Biological Inc.) for the renin activity assay, respectively, was assayed in homogenates after ex vivo incubation at 37 °C in presence or absence of specific enzyme inhibitors. […]
The enzyme activity was calculated by determining the inhibitor sensitive part of product formation in incubated samples and is presented as a product formation in ng of the corresponding angiotensin product per μg protein per hour. […]
as §2

[10] = mouse kidney homogenate, Ang I spike, 37 °C, lisinopril 10 μM, LC-MS/MS, n = 4
[11] = 4 hours prior to sampling, LC-MS/MS, mean ± s.e.m., n = 5
[12] = ratio of renal levels, 4 hours, mean ± s.e.m., n = 5
[13] = heparin plasma incubated 30 min at 37 °C, LC-MS/MS
[14] = ratio of equilibrium plasma levels

Compound: CCOC(=O)[C@H](C)C[C@@H](Cc1ccc(-c2ccccc2)cc1)NC(=O)CCC(=O)O [AHU-377]
Activation of the prodrug [1]: physiologically activated in the liver by CES1

Effect on Ang II formation from Ang I [4, 10]: efficiently blocked
Effect on Ang-(1-7) formation from Ang I [4, 10]: remained unaffected
Compound: NCCCC[C@H](N[C@@H](CCc1ccccc1)C(=O)O)C(=O)N1CCC[C@H]1C(=O)O [lisinopril]
Ang-(1-7) signal with increasing inhibitor concentration ([2]; murine kidney slices incubated with Ang I, lisinopril 0 μM–10 μM, MALDI-Imaging): concentration dependent increase of Ang-(1-7)
Effect on Ang II formation from Ang I ([3]; human kidney biopsy homogenate, Ang I spike, 37 °C, lisinopril 10 μM, LC-MS/MS, n = 5): not able to completely abolish Ang II formation

Enzymatic contribution of ACE, Ang I to Ang II [3]: 25 ± 7%
Enzymatic contribution of NEP, Ang I to Ang-(1-7) [3]: 63 ± 10%
Enzymatic contribution of PEP, Ang I to Ang-(1-7) [3]: 10 ± 3%
Enzymatic contribution of chymase, Ang I to Ang II [3]: 2 ± 2%
Share of Ang I converted to Ang II [3]: 27 ± 9%
Share of Ang I converted to Ang-(1-7) [3]: 73 ± 9%
Enzymatic contribution of NEP, Ang I to Ang-(1-7) [4]: 50 ± 1%
Enzymatic contribution of PEP, Ang I to Ang-(1-7) [4]: 23 ± 1%
Share of Ang I converted directly to Ang-(1-7) [4]: 73.4 ± 2.1%
Share of Ang I metabolized to Ang II (ACE) [4]: 26.6 ± 2.1%
Compound: DRVYIHPFHL [Ang I, angiotensin I]

Compound: CC(C)C[C@H](NC(=O)[C@@H](NC(=O)N[C@@H](Cc1ccccc1)C(=O)O)[C@@H]1CCN=C(N)N1)C(=O)N[C@H](C=O)Cc1ccccc1 [chymostatin]
Effect on ACE independent Ang II formation from Ang I ([3]; human kidney biopsy homogenate, Ang I spike, 37 °C, chymostatin 10 μM, LC-MS/MS, n = 5): At least a part of ACE independent Ang II formation was blocked

Compound: O=C(O)CNC(=O)C(CS)Cc1ccccc1 (racemic) [DL-thiorphan]
Effect on Ang-(1-7) formation from Ang I, MALDI-Imaging intensity ([2]; murine kidney cryo-sections, 772 μM Ang I, 37 °C, 5 min, 100 μM DL-thiorphan in presence of 10 μM lisinopril, n = 4, p = 0.045 vs. 10 μM lisinopril): significant reduction of Ang-(1-7) formation from Ang I
Effect on turnover from Ang I to Ang-(1-7) ([3]; human kidney biopsy homogenate, DL-thiorphan 100 μM with lisinopril 10 μM, n = 5): reduced significantly
Reduction of Ang-(1-7) formation from Ang I ([4]; mouse kidney homogenate, Ang I spike, 37 °C, DL-thiorphan 100 μM used only in combination with lisinopril 10 μM, LC-MS/MS): 75.2 ± 1.8%
Effect on turnover from Ang I to Ang-(1-7) ([4]; mouse kidney homogenate, DL-thiorphan 100 μM with lisinopril 10 μM, n = 4): reduced significantly
ACE inhibitory activity [5]: weak ACE inhibitory activity

Compound: C[C@H](C[C@@H](Cc1ccc(-c2ccccc2)cc1)NC(=O)CCC(=O)O)C(=O)O [LBQ657]
Renal Ang I [6, 11]: 277 ± 31 pg/g
Renal Ang II [6, 11]: 642 ± 99 pg/g
Renal Ang-(1-7) [6, 11]: 35 ± 4 pg/g
Renal Ang-(1-9) [6, 11]: 162 ± 10 pg/g
Renal Ang-(2-8) [6, 11]: 195 ± 28 pg/g
Renal Ang-(2-10) [6, 11]: 89 ± 16 pg/g
Reduction of Ang-(1-7) levels in the murine kidney ([6]; 4 hours prior to sampling, LC-MS/MS, p = 0.026): 53.1 ± 10.6%
Renal Ang-(1-7)/Ang I (x100) [6, 12]: 13.4 ± 2.0
Renal Ang-(1-7)/Ang II (x100) [6, 12]: 6.1 ± 1.2
Equilibrium plasma Ang I [7, 13]: 970 ± 341 pg/mL
Equilibrium plasma Ang II [7, 13]: 1423 ± 540 pg/mL
Equilibrium plasma Ang-(1-5) [7, 13]: 73 ± 34 pg/mL
Equilibrium plasma Ang-(1-7) [7, 13]: 20 ± 7 pg/mL
Equilibrium plasma Ang-(2-8) [7, 13]: 269 ± 91 pg/mL
Equilibrium plasma Ang-(3-8) [7, 13]: 114 ± 36 pg/mL
Equilibrium plasma Ang-(1-7)/Ang I (x100) [7, 14]: 1.8 ± 0.2
Equilibrium plasma Ang-(1-7)/Ang II (x100) [7, 14]: 1.5 ± 0.2

Effect on Ang-(1-7) formation from Ang II, ACE2 KO kidney ([8]; ACE2 KO mouse kidney homogenate in PBS, MLN-4760 10 μM, aminopeptidase inhibitor 10 μM in all samples): no effect
Compound: CC(C)C[C@H](N[C@@H](Cc1cncn1Cc1cc(Cl)cc(Cl)c1)C(=O)O)C(=O)O [MLN-4760]
Effect on Ang-(1-7) formation from Ang II, wild-type kidney ([8]; wild-type mouse kidney homogenate in PBS, MLN-4760 10 μM): reduced Ang-(1-7) formation in wild-type mice to the level of ACE2 KOs

Compound: O=C[C@@H]1CCCN1C(=O)[C@@H]1CCCN1C(=O)OCc1ccccc1 [ZPP, N-benzyloxycarbonyl-prolyl-prolinal] (Cbz-Pro-Pro-aldehyde)
Effect on Ang-(1-7) formation from Ang II, ZPP added to MLN-4760 ([8]; mouse kidney homogenate, ZPP 20 μM in addition to MLN-4760 10 μM): abolished Ang-(1-7) formation completely
Effect on Ang-(1-7) formation from Ang I, ZPP on top of lisinopril and DL-thiorphan ([4]; mouse kidney homogenate, Ang I spike, 37 °C, ZPP 20 μM, LC-MS/MS, n = 4): further significantly reduced Ang-(1-7) formation

Enzymatic contribution of ACE2, Ang II to Ang-(1-7) [9]: 88.2 ± 4.3%
Compound: CC[C@H](C)[C@H](NC(=O)[C@H](Cc1ccc(O)cc1)NC(=O)[C@@H](NC(=O)[C@H](CCCNC(=N)N)NC(=O)[C@@H](N)CC(=O)O)C(C)C)C(=O)N[C@@H](Cc1cnc[nH]1)C(=O)N1CCC[C@H]1C(=O)N[C@@H](Cc1ccccc1)C(=O)O [Ang II, angiotensin II]
